Assay results published in patent US11795177B2, “Substituted quinoline analogs as aldehyde dehydrogenase 1A1 (ALDH1A1) inhibitors” (THE UNITED STATES OF AMERICA, AS REPRESENTED BY THE …, priority 2017, dated 2023).
pIC50: −log10 of the molar value. Structures can show the parent of a compound that is named as a salt.

How the values were obtained:
[1] = system: MIA PaCa-2 cells; experiment: MIA PaCa2 cell-based assay (1,536-well high-content imaging ALDEFLUOR assay); parameters: species or system human; settings: Homo sapiens, 0.5 h, ALDEFLUOR BAAA substrate 500 nM, 30 minutes
Procedure, shortened: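 MIA PaCa-2 cells (1,000/well), plated overnight, given BAAA substrate (500 nM) plus Hoechst 33342 (0.5 nM), then compound (16-point, 1.4 nM–47.8 μM final; 0.5% DMSO). After 30 min at 37° C, ALDH activity imaged by high-content microscopy as BAA-retaining (FITC) cells versus Hoechst-stained nuclei.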

[2] = molecular target: T1, ALDH1A1 enzyme (Homo sapiens, UniProt P00352); experiment: ALDH1A1 enzymatic assay (in vitro); format: biochemical; settings: ALDH1A1 enzyme 20 nM, NAD+ 1 mM, propionaldehyde 80 μM; read-out: ALDH1A1 IC50
T1 sequence (P00352 1-501): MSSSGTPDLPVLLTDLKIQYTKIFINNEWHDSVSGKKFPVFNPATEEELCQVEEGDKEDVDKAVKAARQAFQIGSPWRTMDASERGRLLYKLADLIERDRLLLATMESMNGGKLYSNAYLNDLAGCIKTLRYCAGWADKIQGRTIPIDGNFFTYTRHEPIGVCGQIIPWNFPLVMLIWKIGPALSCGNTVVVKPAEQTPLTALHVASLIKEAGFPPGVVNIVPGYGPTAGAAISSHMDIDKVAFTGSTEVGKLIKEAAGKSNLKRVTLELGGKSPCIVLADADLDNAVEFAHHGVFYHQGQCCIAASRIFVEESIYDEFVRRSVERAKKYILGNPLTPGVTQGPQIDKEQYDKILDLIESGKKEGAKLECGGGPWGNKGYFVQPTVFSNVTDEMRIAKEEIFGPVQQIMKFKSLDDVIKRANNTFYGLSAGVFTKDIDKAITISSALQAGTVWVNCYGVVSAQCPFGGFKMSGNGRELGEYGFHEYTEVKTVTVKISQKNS
Procedure, shortened: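 ALDH1A1 (20 nM final) in 100 mM HEPES pH 7.5, 0.01% Tween 20 was preincubated 15 min at RT with compound (968 pM–57.2 μM final), then started with 1 mM NAD+ and 80 μM propionaldehyde. NADH fluorescence (ex 340/em 450 nm) followed kinetically for 10 min; change normalized to no-inhibitor and no-enzyme controls for percent inhibition and curve fitting.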

COc1ccc2ncc(C(=O)N3CCN(C(=O)C4CC4)CC3)c(N3CCC4(CCCC4)CC3)c2c1 [Example 17, (4-(cyclopropanecarbonyl)piperazin-1-yl)(6-methoxy-4-(8-azaspiro[4.5]decan-8-yl)quinolin-3-yl)methanone, TFA]
pIC50 [1]: 5.00 to 6.00 | pIC50 [2]: > 6.30

COc1c(F)cc2c(N3CCC(C)(C#N)CC3)c(C(=O)N3CCN(S(C)(=O)=O)CC3)cnc2c1F [Example 137, 1-(6,8-difluoro-7-methoxy-3-(4-(methylsulfonyl)piperazine-1-carbonyl)quinolin-4-yl)-4-methylpiperidine-4-carbonitrile]
pIC50 [1]: 6.00 to 6.30 | pIC50 [2]: > 6.30

N#CC1(c2ccc(-c3c(C(=O)N4CCC(O)(CO)CC4)cnc4ccc(F)cc34)cc2)CC1 [Cpd. 354, 1-(4-(6-fluoro-3-(4-hydroxy-4-(hydroxymethyl)piperidine-1-carbonyl)quinolin-4-yl)phenyl)cyclopropane-1-carbonitrile]
pIC50 [1]: 5.00 to 6.00 | pIC50 [2]: > 6.30

CC(C)(C#N)c1ccc(-c2c(C(=O)N3CCC(S(C)(=O)=O)CC3)cnc3ccc(F)cc23)cc1 [Example 259, 2-(4-(6-fluoro-3-(4-(methylsulfonyl)piperidine-1-carbonyl)quinolin-4-yl)phenyl)-2-methylpropanenitrile]
pIC50 [1]: > 6.30 | pIC50 [2]: > 6.30

CCC(=O)N1CCN(C(=O)c2cnc3ccccc3c2N2CCC(C)(C#N)CC2)CC1 [Example 94, 4-methyl-1-(3-(4-propionylpiperazine-1-carbonyl)quinolin-4-yl)piperidine-4-carbonitrile]
pIC50 [1]: < 5.00 | pIC50 [2]: 6.00 to 6.30

CCNC(=O)N1CCN(C(=O)c2cnc3ccccc3c2N2CCC(C)(C#N)CC2)CC1 [Example 99, 4-(4-(4-cyano-4-methylpiperidin-1-yl)quinoline-3-carbonyl)-N-ethylpiperazine-1-carboxamide]
pIC50 [1]: < 5.00 | pIC50 [2]: 5.00 to 6.00

CC1(C#N)CCN(c2c(C(=O)N3CCN(C(=O)N4CCCC4)CC3)cnc3cc(F)c(F)cc23)CC1 [Example 175, 1-(6,7-difluoro-3-(4-(pyrrolidine-1-carbonyl)piperazine-1-carbonyl)quinolin-4-yl)-4-methylpiperidine-4-carbonitrile]
pIC50 [1]: 5.00 to 6.00 | pIC50 [2]: 5.00 to 6.00

O=C(c1cnc2cc(F)c(F)cc2c1N1CCC2(CC1)OCCO2)N1CCN(S(=O)(=O)N2CCCC2)CC1 [Example 173, (6,7-difluoro-4-(1,4-dioxa-8-azaspiro[4.5]decan-8-yl)quinolin-3-yl)(4-(pyrrolidin-1-ylsulfonyl)piperazin-1-yl)methanone]
pIC50 [1]: < 5.00 | pIC50 [2]: > 6.30

CN(C)S(=O)(=O)N1CCN(C(=O)c2cnc3ccc(Cl)cc3c2-c2ccc(C3(C#N)CC3)cc2)CC1 [Example 298, 4-(6-chloro-4-(4-(1-cyanocyclopropyl)phenyl)quinoline-3-carbonyl)-N,N-dimethylpiperazine-1-sulfonamide]
pIC50 [1]: > 6.30 | pIC50 [2]: > 6.30

CC(C)NC(=O)N1CCN(C(=O)c2cnc3ccc(F)cc3c2N2CCC(C)(C#N)CC2)CC1 [Example 90, 4-(4-(4-cyano-4-methylpiperidin-1-yl)-6-fluoroquinoline-3-carbonyl)-N-isopropylpiperazine-1-carboxamide]
pIC50 [1]: < 5.00 | pIC50 [2]: 5.00 to 6.00

O=C(c1cnc2ccc(F)cc2c1N1CCC(O)(c2ccccc2)CC1)N1CCN(C(=O)C2CC2)CC1 [Example 291, (4-(cyclopropanecarbonyl)piperazin-1-yl)(6-fluoro-4-(4-hydroxy-4-phenylpiperidin-1-yl)quinolin-3-yl)methanone]
pIC50 [1]: < 5.00 | pIC50 [2]: > 6.30

COc1ccc2c(N3CCC(C)(C#N)CC3)c(C(=O)N3CCN(C(=O)C(C)C)CC3)cnc2c1 [Example 103, 1-(3-(4-isobutyrylpiperazine-1-carbonyl)-7-methoxyquinolin-4-yl)-4-methylpiperidine-4-carbonitrile]
pIC50 [1]: 5.00 to 6.00 | pIC50 [2]: > 6.30

COc1ccc2ncc(C(=O)N3CCN(C(=O)C4CC4)CC3)c(N3CCC(F)(F)CC3)c2c1 [Example 44, (4-(cyclopropanecarbonyl)piperazin-1-yl)(4-(4,4-difluoropiperidin-1-yl)-6-methoxyquinolin-3-yl)methanone]
pIC50 [1]: < 5.00 | pIC50 [2]: < 5.00

COc1ccc2ncc(C(=O)N3CCN(c4cccnc4)CC3)c(N3CCC4(CC3)OCCO4)c2c1 [Example 14, (6-methoxy-4-(1,4-dioxa-8-azaspiro[4.5]decan-8-yl)quinolin-3-yl)(4-(pyridin-3-yl)piperazin-1-yl)methanone, TFA]
pIC50 [1]: < 5.00 | pIC50 [2]: > 6.30

CN(C)S(=O)(=O)N1CCN(C(=O)c2cnc3ccsc3c2-c2ccc(C3(C#N)CC3)cc2)CC1 [Example 284, 4-(7-(4-(1-cyanocyclopropyl)phenyl)thieno[3,2-b]pyridine-6-carbonyl)-N,N-dimethylpiperazine-1-sulfonamide]
pIC50 [1]: > 6.30 | pIC50 [2]: > 6.30

CC(=O)C1(c2ccccc2)CCN(c2c(C(=O)N3CCN(S(=O)(=O)N(C)C)CC3)cnc3ccc(F)cc23)CC1 [Example 268, 4-(4-(4-acetyl-4-phenylpiperidin-1-yl)-6-fluoroquinoline-3-carbonyl)-N,N-dimethylpiperazine-1-sulfonamide]
pIC50 [1]: > 6.30 | pIC50 [2]: > 6.30

O=C(C1CC1)C1CCN(C(=O)c2cnc3cc(F)c(F)cc3c2N2CCC3(CC2)OCCO3)CC1 [Example 193, (4-(cyclopropanecarbonyl)piperidin-1-yl)(6,7-difluoro-4-(1,4-dioxa-8-azaspiro[4.5]decan-8-yl)quinolin-3-yl)methanone]
pIC50 [1]: 5.00 to 6.00 | pIC50 [2]: > 6.30

COc1ccc2ncc(C(=O)N3CCN(C(=O)C(C)C)CC3)c(N3CCC4(CC3)OCCO4)c2c1 [Example 5, 1-(4-(6-methoxy-4-(1,4-dioxa-8-azaspiro[4.5]decan-8-yl)quinoline-3-carbonyl)piperazin-1-yl)-2-methylpropan-1-one, TFA]
pIC50 [1]: < 5.00 | pIC50 [2]: > 6.30

CCS(=O)(=O)N1CCN(C(=O)c2cnc3c(F)cc(F)cc3c2N2CCC3(CC2)OCCO3)CC1 [Example 161, (6,8-difluoro-4-(1,4-dioxa-8-azaspiro[4.5]decan-8-yl)quinolin-3-yl)(4-(ethylsulfonyl)piperazin-1-yl)methanone]
pIC50 [1]: 5.00 to 6.00 | pIC50 [2]: > 6.30

CS(=O)(=O)C1CCN(C(=O)c2cnc3ccc(F)cc3c2-c2ccc(C3(C#N)CC3)cc2)CC1 [Example 266, 1-(4-(6-fluoro-3-(4-(methylsulfonyl)piperidine-1-carbonyl)quinolin-4-yl)phenyl)cyclopropanecarbonitrile]
pIC50 [1]: > 6.30 | pIC50 [2]: > 6.30

COc1ccc2ncc(C(=O)N3CCC(c4ccccc4)CC3)c(N3CCC4(CC3)OCCO4)c2c1 [Example 10, (6-methoxy-4-(1,4-dioxa-8-azaspiro[4.5]decan-8-yl)quinolin-3-yl)(4-phenylpiperidin-1-yl)methanone, TFA]
pIC50 [1]: < 5.00 | pIC50 [2]: > 6.30

CC1(C#N)CCN(c2c(C(=O)N3CCN(S(C)(=O)=O)CC3)cnc3ccc(Cl)cc23)CC1 [Example 119, 1-(6-chloro-3-(4-(methylsulfonyl)piperazine-1-carbonyl)quinolin-4-yl)-4-methylpiperidine-4-carbonitrile]
pIC50 [1]: 5.00 to 6.00 | pIC50 [2]: > 6.30

CC1(C#N)CCN(c2c(C(=O)N3CCN(S(=O)(=O)C4CC4)CC3)cnc3ccccc23)CC1 [Example 98, 1-(3-(4-(cyclopropylsulfonyl)piperazine-1-carbonyl)quinolin-4-yl)-4-methylpiperidine-4-carbonitrile]
pIC50 [1]: < 5.00 | pIC50 [2]: 5.00 to 6.00

Cc1ccc(C2(C#N)CCN(c3c(C(=O)N4CCN(C(=O)C5CC5)CC4)cnc4ccc(F)cc34)CC2)c(F)c1 [Example 290, 1-(3-(4-(cyclopropanecarbonyl)piperazine-1-carbonyl)-6-fluoroquinolin-4-yl)-4-(2-fluoro-4-methylphenyl)piperidine-4-carbonitrile]
pIC50 [1]: > 6.30 | pIC50 [2]: > 6.30

CC(C)C1CCN(c2c(C(=O)N3CCN(C(=O)C4CC4)CC3)cnc3ccc(F)cc23)CC1 [Example 74, (4-(cyclopropanecarbonyl)piperazin-1-yl)(6-fluoro-4-(4-isopropylpiperidin-1-yl)quinolin-3-yl)methanone]
pIC50 [1]: 5.00 to 6.00 | pIC50 [2]: > 6.30

CCNC(=O)N1CCN(C(=O)c2cnc3cc(OC)ccc3c2N2CCC(C)(C#N)CC2)CC1 [Example 107, 4-(4-(4-cyano-4-methylpiperidin-1-yl)-7-methoxyquinoline-3-carbonyl)-N-ethylpiperazine-1-carboxamide]
pIC50 [1]: 5.00 to 6.00 | pIC50 [2]: > 6.30

CCNC(=O)N1CCN(C(=O)c2cnc3cc(F)c(F)cc3c2N2CCC(C)(C#N)CC2)CC1 [Example 146, 4-(4-(4-cyano-4-methylpiperidin-1-yl)-6,7-difluoroquinoline-3-carbonyl)-N-ethylpiperazine-1-carboxamide]
pIC50 [1]: 5.00 to 6.00 | pIC50 [2]: 6.00 to 6.30
